Experiments:
[1] = Cell membrane disruption (hemolysis) of mouse erythrocytes; format: cell-based; settings: mouse erythrocytes (2% suspension), 2% mouse erythrocyte suspension, room temperature, tested 1.5 to 200 μg/mL, lysis 50% of Triton X-100
Experimental: The mechanical stability of red blood cells is a good parameter for in vitro screening of unspecific cytotoxicity, since the membrane of erythrocyte can suffer significant changes in its structural properties. In order to verify whether the cytotoxicity of the compounds was linked to the membrane disruption, the ability to induce lysis of mouse erythrocytes was investigated, and no membrane damage was found for all tested compounds (EC50 > 200 μg/mL).
The test was performed in 96-well plates using a 2% mouse erythrocyte suspension in 0.85% NaCl containing 10 mM CaCl2. The compounds diluted as mentioned above were tested at concentrations ranging from 1.5 to 200 μg/mL. After incubation at room temperature for 30 min and centrifugation, the supernatant was removed and the liberated hemoglobin was measured spectrophotometrically at 540 nm. DMSO was used as a negative control and Triton X-100 (1%) was used as positive control. EC50 is the calculated effective dose that induced lysis on 50% that of the Triton X-100 [37].

HCT-116 = experiment: MTT cytotoxicity assay, HCT-116 colon cancer cells; format: cell-based; settings: Homo sapiens, IC50 with 95% confidence interval, triplicate, 72 h incubation
Experimental: (§1) In vitro anticancer activity of compounds 2, 3 and 4a–r was evaluated against three human cancer cell lines in comparison to doxorubicin by using MTT assay.
(§2) Compounds (0.312–20 μM) were tested for cytotoxic activity against three cancer cell lines: ACP-03 (gastric), SKMEL-19 (melanoma) and HCT-116 (colon). All cell lines were maintained in DMEM medium supplemented with 10% fetal bovine serum, 2 mM glutamine, 100 U/mL penicillin, and […] streptomycin at 37 °C with 5% CO2. Each compound was dissolved in DMSO and diluted with water to obtain a concentration of 20 μM. They were incubated with the cells for 72 h. The negative control received the same amount of DMSO (0.005% in the highest concentration). Doxorrubicin was used as a positive control. The cell viability was determined by reduction of the yellow dye 3-(4,5-dimethyl-2-thiazol)-2,5-diphenyl-2H-tetrazolium bromide (MTT) to a blue formazan product after 48 h as described by Mosmann.

ACP-03 = experiment: MTT cytotoxicity assay, ACP-03 gastric cancer cells; format: cell-based, human; settings: IC50 with 95% confidence interval, triplicate, 72 h incubation
Experimental: as §1, §2

SKMEL-19 = experiment: MTT cytotoxicity assay, SKMEL-19 melanoma cells; format: cell-based, human; settings: IC50 with 95% confidence interval, triplicate, 72 h incubation
Experimental: as §1, §2

Row | melting point | SMILES | EC50 at 30 min [1] [µg/mL] | IC50 (HCT-116) [µM] | IC50 (ACP-03; Homo sapiens, 72 h) [µM] | IC50 (SKMEL-19; Homo sapiens, SK-MEL19, 72 h) [µM] | IC50 (ACP-03) [µM] | IC50 (SKMEL-19) [µM]
1 | 210 to 212 °C | O=c1oc2cc(O)c(/N=C/c3ccc(Cl)cc3)cc2s1 [Compound 4f, (E)-5-(4-Chlorobenzylideneamino)-6-hydroxybenzo[d][1,3]oxathiol-2-one] | > 200 | > 10 | > 10 | > 10 | – | –
2 | 284 to 285 °C (dec.) | O=c1oc2cc(O)c(/N=C/c3ccc(O)cc3O)cc2s1 [Compound 4m, (E)-5-(2,4-Dihydroxybenzylideneamino)-6-hydroxybenzo[d][1,3]oxathiol-2-one] | > 200 | > 10 | > 10 | 9.4 | – | –
3 | 244 to 246 °C | O=c1oc2cc(O)c(/N=C/c3cccc(O)c3O)cc2s1 [Compound 4l, (E)-5-(2,3-Dihydroxybenzylideneamino)-6-hydroxybenzo[d][1,3]oxathiol-2-one] | > 200 | > 10 | > 10 | > 10 | – | –
4 | 261 to 263 °C | N#Cc1ccc(/C=N/c2cc3sc(=O)oc3cc2O)cc1 [Compound 4a, (E)-4-((6-Hydroxy-2-oxobenzo[d][1,3]oxathiol-5-ylimino)methyl)benzonitrile] | > 200 | > 10 | > 10 | > 10 | – | –
5 | 211 to 213 °C | O=c1oc2cc(O)c(/N=C/c3ccc(Br)cc3)cc2s1 [Compound 4d, (E)-5-(4-Bromobenzylideneamino)-6-hydroxybenzo[d][1,3]oxathiol-2-one] | > 200 | > 10 | > 10 | > 10 | – | –
6 | 232 to 233 °C | O=c1oc2cc(O)c(/N=C/c3ccccc3)cc2s1 [Compound 4h, (E)-5-(Benzylideneamino)-6-hydroxybenzo[d][1,3]oxathiol-2-one] | > 200 | > 10 | > 10 | > 10 | – | –
7 | 221 to 223 °C | O=c1oc2cc(O)c(/N=C/c3ccc(Cl)cc3Cl)cc2s1 [Compound 4g, (E)-5-(2,4-Dichlorobenzylideneamino)-6-hydroxybenzo[d][1,3]oxathiol-2-one] | > 200 | > 10 | > 10 | > 10 | – | –
8 | 250 to 252 °C | O=c1oc2cc(O)c(/N=C/c3cc(Br)ccc3O)cc2s1 [Compound 4p, (E)-5-(5-Bromo-2-hydroxybenzylideneamino)-6-hydroxybenzo[d][1,3]oxathiol-2-one] | > 200 | > 10 | > 10 | > 10 | – | –
9 | 199 to 201 °C | CN(C)c1ccc(/C=N/c2cc3sc(=O)oc3cc2O)cc1 [Compound 4i, (E)-5-(4-(Dimethylamino)benzylideneamino)-6-hydroxybenzo[d][1,3]oxathiol-2-one] | > 200 | > 10 | > 10 | > 10 | – | –
10 | 180 to 182 °C | O=c1oc2cc(O)c([N+](=O)[O-])cc2s1 [Compound 2, 6-Hydroxy-5-nitrobenzo[d][1,3]oxathiol-2-one] | > 200 | > 10 | > 10 | > 10 | – | –
11 | 220 to 222 °C | O=c1oc2cc(O)c(/N=C/c3cccc([N+](=O)[O-])c3)cc2s1 [Compound 4c, (E)-6-Hydroxy-5-(3-nitrobenzylideneamino)benzo[d][1,3]oxathiol-2-one] | > 200 | > 10 | > 10 | > 10 | – | –
12 | 223 to 224 °C | O=c1oc2cc(O)c(/N=C/c3ccc([N+](=O)[O-])cc3)cc2s1 [Compound 4b, (E)-6-Hydroxy-5-(4-nitrobenzylideneamino)benzo[d][1,3]oxathiol-2-one] | > 200 | > 10 | < 5 | > 10 | 4.8 | –
13 | 177 to 178 °C | COc1ccc(/C=N/c2cc3sc(=O)oc3cc2O)cc1 [Compound 4j, (E)-6-Hydroxy-5-(4-methoxybenzylideneamino)benzo[d][1,3]oxathiol-2-one] | > 200 | > 10 | > 10 | > 10 | – | –
14 | – | COc1cccc2c1C(=O)c1c(O)c3c(c(O)c1C2=O)C[C@@](O)(C(=O)CO)C[C@@H]3O[C@H]1C[C@H](N)[C@H](O)[C@H](C)O1 [Dox, Doxorubicin, reference compound] | > 200 | 0.1 | 0.274 | 0.045 | – | –
15 | 232 to 233 °C | O=c1oc2cc(O)c(/N=C/c3ccc4c(c3)OCO4)cc2s1 [Compound 4r, (E)-5-(Benzo[d][1,3]dioxol-5-ylmethyleneamino)-6-hydroxybenzo[d][1,3]oxathiol-2-one] | > 200 | > 10 | > 10 | > 10 | – | –
16 | 179 to 180 °C | O=c1oc2cc(O)c(/N=C/c3cccc(Br)c3)cc2s1 [Compound 4e, (E)-5-(3-Bromobenzylideneamino)-6-hydroxybenzo[d][1,3]oxathiol-2-one] | > 200 | > 10 | > 10 | > 10 | – | –
17 | 194 to 195 °C | Nc1cc2sc(=O)oc2cc1O [Compound 3, 5-Amino-6-hydroxybenzo[d][1,3]oxathiol-2-one] | > 200 | > 10 | > 10 | > 10 | – | –
18 | 261 to 263 °C | O=c1oc2cc(O)c(/N=C/c3cc(O)ccc3O)cc2s1 [Compound 4n, (E)-5-(2,5-Dihydroxybenzylideneamino)-6-hydroxybenzo[d][1,3]oxathiol-2-one] | > 200 | > 10 | > 10 | 5.6 | – | –
19 | 252 to 253 °C | O=c1oc2cc(O)c(/N=C/c3ccccc3O)cc2s1 [Compound 4k, (E)-6-Hydroxy-5-(2-hydroxybenzylideneamino)benzo[d][1,3]oxathiol-2-one] | > 200 | > 10 | > 10 | > 10 | – | –
20 | 293 to 294 °C | O=c1oc2cc(O)c(/N=C/c3cc([N+](=O)[O-])ccc3O)cc2s1 [Compound 4o, (E)-6-Hydroxy-5-(2-hydroxy-5-nitrobenzylideneamino)benzo[d][1,3]oxathiol-2-one] | > 200 | > 10 | > 10 | < 5 | – | 2.8
21 | 201 to 203 °C | O=c1oc2cc(O)c(/N=C/c3ccc(-c4ccccn4)cc3)cc2s1 [Compound 4q, (E)-6-Hydroxy-5-(4-(pyridin-2-yl)benzylideneamino)benzo[d][1,3]oxathiol-2-one] | > 200 | > 10 | > 10 | > 10 | – | –

— PMC6272564, “Synthesis and Biological Evaluation of Novel 6-Hydroxy-benzo[d][1,3]oxathiol-2-one Schiff Bases as Potential Anticancer Agents” (Molecules, 2015)
